Here are results for one molecule from patent US5091191A (Yoshitomi Pharmaceutical Industries, Ltd., priority 1988, dated 1992).

SMILES strings stand for the structures.

Data set [1] can be described thus: Solubility of the Compound at different pH values (FIG. 1). Type of data set: physicochemical. The following applies: weakly acid to neutral, about pH 3 to about pH 7. From the text: FIG. 1 is a graph showing the solubility of the Compound at different ph valves. FIGS. 2, 3 and 4 are the graphs showing the dissolution test results of the Compound and the tablets of Reference Example 1, the fine granules of Example 1 and the tablets of Example 2, respectively.

The nature of data set [2]: Behaviour of finely-powdered Compound in weakly acid solution. Type of data set: physicochemical.

`Cc1ccc(-n2ccnc2)cc1C(O)c1c(C)cc(C(=O)[O-])cc1C.[Na+]` (stereo not drawn): in data set [1], the solubility result is recorded as “lowered under weakly acid to neutral conditions”. Further, the “conversion to corresponding free acid” value in data set [2] (added to a weakly acid solution) was “the corresponding free acid was produced through chemical reaction”. In data set [2] (weakly acid solution), the “dissolution-improving effect of finely-powdering” value is on record as “there was not found any dissolution-improving effect”.
